Results published in the kinase profiling compilation of Christmann-Franck et al. (2016).
“And” between values parts separate entries of the source, which are not always exact repeats. Equal values may be shown once.

Columns and labels:
Experiment in all cases: radiometric filter-binding kinase assay, Kinase HotSpot
Conditions in all cases: compound 0.5 µM; ATP 10 µM
CAMK2B (human) = CAMK2B (human) (UniProt Q13554)
CDK3 CCNE1 (human) = CDK3 CCNE1 (human) (UniProt Q00526+P24864)
CHEK1 (human) = CHEK1 (human) (UniProt O14757)
CLK4 (human) = CLK4 (human) (UniProt Q9HAZ1)
CSNK1A1 (human) = CSNK1A1 (human) (UniProt P48729)
CSNK1G3 (human) = CSNK1G3 (human) (UniProt Q9Y6M4)
DSTYK (human) = DSTYK (human) (UniProt Q6XUX3)
EPHA6 (human) = EPHA6 (human) (UniProt Q9UF33)
EPHA8 (human) = EPHA8 (human) (UniProt P29322)
INSRR (human) = INSRR (human) (UniProt P14616)
ITK (human) = ITK (human) (UniProt Q08881)
[1] = target: JAK1 JH1 catalytic (human) (UniProt P23458)
MAPK3 (human) = MAPK3 (human) (UniProt P27361)
MARK4 (human) = MARK4 (human) (UniProt Q96L34)
MYO3B (human) = MYO3B (human) (UniProt Q8WXR4)
NUAK2 (human) = NUAK2 (human) (UniProt Q9H093)
PASK (human) = PASK (human) (UniProt Q96RG2)
PKN1 (human) = PKN1 (human) (UniProt Q16512)
PRKACG (human) = PRKACG (human) (UniProt P22612)
PRKCG (human) = PRKCG (human) (UniProt P05129)
PRKCZ (human) = PRKCZ (human) (UniProt Q05513)
PRKG1 (human) = PRKG1 (human) (UniProt Q13976)
ROS1 (human) = ROS1 (human) (UniProt P08922)
RPS6KA1 KD1 KD2 (human) = RPS6KA1 KD1 KD2 (human) (UniProt Q15418)
RPS6KA2 KD1 KD2 (human) = RPS6KA2 KD1 KD2 (human) (UniProt Q15349)
SRC (human) = SRC (human) (UniProt P12931)
STK25 (human) = STK25 (human) (UniProt O00506)
STK38 (human) = STK38 (human) (UniProt Q15208)
TAOK1 (human) = TAOK1 (human) (UniProt Q7L7X3)
TLK2 (human) = TLK2 (human) (UniProt Q86UE8)
ULK3 (human) = ULK3 (human) (UniProt Q6PHR2)
ABL1 (human) = ABL1 (human) (UniProt P00519)
[2] = test system: ARAF (human), P10398 [Y301D/Y302D]
BRAF (human) = BRAF (human) (UniProt P15056)
CSNK2A2 (human) = CSNK2A2 (human) (UniProt P19784)
DYRK2 (human) = DYRK2 (human) (UniProt Q92630)
EGFR (human) = EGFR (human) (UniProt P00533)
MAPK8 (human) = MAPK8 (human) (UniProt P45983)
PDGFRB (human) = PDGFRB (human) (UniProt P09619)
PRKCE (human) = PRKCE (human) (UniProt Q02156)
TYRO3 (human) = TYRO3 (human) (UniProt Q06418)

EPHA8 (human), sequence (P29322 whole entry, looked up): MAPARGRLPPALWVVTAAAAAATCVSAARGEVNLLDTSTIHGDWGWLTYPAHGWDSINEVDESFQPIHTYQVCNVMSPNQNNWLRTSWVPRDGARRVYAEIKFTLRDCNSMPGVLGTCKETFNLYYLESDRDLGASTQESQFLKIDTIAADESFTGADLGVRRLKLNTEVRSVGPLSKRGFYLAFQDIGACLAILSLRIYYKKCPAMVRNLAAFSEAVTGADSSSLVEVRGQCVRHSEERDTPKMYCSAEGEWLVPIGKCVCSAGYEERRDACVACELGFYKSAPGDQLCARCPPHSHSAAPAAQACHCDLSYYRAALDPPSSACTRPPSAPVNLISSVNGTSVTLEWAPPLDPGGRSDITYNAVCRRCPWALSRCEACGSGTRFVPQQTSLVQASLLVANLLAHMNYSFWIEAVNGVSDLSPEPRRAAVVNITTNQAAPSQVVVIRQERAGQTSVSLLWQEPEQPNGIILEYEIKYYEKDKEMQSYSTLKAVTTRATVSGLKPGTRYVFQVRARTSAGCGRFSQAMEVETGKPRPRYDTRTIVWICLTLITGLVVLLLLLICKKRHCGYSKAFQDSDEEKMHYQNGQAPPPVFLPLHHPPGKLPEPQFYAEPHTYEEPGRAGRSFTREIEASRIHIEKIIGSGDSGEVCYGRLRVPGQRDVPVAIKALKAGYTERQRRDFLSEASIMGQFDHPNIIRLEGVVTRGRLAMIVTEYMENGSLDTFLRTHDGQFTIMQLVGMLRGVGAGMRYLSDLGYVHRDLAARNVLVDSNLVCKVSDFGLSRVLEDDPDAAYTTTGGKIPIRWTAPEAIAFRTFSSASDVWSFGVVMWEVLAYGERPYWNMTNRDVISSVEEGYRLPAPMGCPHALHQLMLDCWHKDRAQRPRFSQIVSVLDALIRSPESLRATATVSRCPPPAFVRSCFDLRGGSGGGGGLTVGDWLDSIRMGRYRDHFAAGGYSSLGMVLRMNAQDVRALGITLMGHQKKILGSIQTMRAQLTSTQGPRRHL
BRAF (human), sequence (P15056 whole entry, looked up): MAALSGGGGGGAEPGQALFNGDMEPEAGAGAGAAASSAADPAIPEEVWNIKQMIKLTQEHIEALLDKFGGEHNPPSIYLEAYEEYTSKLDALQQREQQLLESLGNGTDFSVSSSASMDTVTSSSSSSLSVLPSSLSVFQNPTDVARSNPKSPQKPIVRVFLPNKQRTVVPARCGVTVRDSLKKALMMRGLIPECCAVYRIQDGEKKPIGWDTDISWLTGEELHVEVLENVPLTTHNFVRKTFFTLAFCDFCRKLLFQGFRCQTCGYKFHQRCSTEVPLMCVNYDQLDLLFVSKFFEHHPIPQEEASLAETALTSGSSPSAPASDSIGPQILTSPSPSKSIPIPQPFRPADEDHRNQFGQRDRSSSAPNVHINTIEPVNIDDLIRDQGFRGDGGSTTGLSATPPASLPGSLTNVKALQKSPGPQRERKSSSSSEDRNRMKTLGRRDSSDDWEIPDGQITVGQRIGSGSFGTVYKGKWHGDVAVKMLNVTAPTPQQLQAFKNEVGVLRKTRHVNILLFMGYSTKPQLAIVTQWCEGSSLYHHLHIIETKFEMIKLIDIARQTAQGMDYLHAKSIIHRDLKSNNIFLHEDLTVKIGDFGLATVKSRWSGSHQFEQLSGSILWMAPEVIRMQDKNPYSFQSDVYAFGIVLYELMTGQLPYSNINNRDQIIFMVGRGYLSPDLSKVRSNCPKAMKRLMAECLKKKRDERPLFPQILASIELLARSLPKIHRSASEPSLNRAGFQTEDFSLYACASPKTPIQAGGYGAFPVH
CAMK2B (human), sequence (Q13554 whole entry, looked up): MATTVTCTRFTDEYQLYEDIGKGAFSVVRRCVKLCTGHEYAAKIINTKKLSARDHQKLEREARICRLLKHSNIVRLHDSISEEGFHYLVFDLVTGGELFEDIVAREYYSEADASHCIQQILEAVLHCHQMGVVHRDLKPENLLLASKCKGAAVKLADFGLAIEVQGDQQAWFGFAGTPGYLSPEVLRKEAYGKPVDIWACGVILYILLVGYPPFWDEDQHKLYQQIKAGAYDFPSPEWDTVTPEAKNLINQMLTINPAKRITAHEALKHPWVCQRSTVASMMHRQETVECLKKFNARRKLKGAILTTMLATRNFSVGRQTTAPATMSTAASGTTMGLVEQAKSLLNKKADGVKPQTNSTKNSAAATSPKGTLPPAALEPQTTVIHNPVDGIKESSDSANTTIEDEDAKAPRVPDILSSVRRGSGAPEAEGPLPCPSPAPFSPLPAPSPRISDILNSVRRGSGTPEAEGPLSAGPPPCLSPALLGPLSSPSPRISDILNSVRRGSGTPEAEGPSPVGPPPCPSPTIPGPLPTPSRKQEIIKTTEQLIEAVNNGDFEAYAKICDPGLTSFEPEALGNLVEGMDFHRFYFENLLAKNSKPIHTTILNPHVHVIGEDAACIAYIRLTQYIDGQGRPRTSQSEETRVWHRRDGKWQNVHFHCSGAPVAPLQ
CSNK2A2 (human), sequence (P19784 whole entry, looked up): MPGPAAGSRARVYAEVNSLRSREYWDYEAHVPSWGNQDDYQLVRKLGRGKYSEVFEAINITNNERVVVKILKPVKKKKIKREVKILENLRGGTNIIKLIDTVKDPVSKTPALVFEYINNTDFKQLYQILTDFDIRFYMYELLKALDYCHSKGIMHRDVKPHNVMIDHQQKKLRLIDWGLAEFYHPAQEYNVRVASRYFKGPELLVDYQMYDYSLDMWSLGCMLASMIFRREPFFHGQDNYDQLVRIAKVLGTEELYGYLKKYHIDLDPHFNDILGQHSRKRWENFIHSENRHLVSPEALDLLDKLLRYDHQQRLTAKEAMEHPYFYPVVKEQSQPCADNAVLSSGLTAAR
STK25 (human), sequence (O00506 whole entry, looked up): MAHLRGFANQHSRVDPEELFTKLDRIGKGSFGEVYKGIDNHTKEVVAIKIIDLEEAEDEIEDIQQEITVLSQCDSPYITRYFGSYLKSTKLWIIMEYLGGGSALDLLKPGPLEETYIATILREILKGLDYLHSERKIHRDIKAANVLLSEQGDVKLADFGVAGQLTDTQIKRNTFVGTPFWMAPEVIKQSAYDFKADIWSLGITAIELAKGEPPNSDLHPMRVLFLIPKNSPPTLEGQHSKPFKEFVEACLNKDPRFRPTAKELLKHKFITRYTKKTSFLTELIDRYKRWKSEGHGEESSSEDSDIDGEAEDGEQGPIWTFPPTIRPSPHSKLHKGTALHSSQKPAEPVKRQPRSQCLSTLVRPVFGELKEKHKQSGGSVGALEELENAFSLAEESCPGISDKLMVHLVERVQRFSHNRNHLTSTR
TAOK1 (human), sequence (Q7L7X3 whole entry, looked up): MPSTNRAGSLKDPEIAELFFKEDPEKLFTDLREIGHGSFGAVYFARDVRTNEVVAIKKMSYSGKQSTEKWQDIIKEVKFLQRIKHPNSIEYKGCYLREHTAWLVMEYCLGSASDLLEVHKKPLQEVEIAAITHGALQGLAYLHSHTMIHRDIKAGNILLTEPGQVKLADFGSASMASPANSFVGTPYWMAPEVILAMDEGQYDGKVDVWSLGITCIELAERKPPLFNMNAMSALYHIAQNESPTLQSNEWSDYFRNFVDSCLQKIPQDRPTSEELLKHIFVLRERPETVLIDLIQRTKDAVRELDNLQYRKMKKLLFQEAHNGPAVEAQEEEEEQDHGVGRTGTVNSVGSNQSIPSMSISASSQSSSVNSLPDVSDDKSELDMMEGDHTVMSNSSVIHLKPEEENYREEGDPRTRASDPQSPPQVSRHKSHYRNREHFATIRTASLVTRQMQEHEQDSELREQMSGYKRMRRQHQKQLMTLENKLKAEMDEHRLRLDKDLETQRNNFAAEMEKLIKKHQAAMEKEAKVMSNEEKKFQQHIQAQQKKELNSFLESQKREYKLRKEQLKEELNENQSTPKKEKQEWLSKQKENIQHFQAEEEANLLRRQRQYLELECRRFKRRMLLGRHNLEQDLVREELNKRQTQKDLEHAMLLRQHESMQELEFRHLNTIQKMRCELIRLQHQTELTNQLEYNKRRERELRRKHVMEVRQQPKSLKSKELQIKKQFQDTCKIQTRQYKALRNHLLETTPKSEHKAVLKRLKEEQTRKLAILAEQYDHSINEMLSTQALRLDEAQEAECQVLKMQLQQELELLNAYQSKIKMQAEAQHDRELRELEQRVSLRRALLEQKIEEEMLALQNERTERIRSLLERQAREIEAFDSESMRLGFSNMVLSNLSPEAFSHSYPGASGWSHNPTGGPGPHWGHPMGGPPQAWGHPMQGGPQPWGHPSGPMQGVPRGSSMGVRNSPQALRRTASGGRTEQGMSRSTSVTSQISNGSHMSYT
DYRK2 (human), sequence (Q92630 whole entry, looked up): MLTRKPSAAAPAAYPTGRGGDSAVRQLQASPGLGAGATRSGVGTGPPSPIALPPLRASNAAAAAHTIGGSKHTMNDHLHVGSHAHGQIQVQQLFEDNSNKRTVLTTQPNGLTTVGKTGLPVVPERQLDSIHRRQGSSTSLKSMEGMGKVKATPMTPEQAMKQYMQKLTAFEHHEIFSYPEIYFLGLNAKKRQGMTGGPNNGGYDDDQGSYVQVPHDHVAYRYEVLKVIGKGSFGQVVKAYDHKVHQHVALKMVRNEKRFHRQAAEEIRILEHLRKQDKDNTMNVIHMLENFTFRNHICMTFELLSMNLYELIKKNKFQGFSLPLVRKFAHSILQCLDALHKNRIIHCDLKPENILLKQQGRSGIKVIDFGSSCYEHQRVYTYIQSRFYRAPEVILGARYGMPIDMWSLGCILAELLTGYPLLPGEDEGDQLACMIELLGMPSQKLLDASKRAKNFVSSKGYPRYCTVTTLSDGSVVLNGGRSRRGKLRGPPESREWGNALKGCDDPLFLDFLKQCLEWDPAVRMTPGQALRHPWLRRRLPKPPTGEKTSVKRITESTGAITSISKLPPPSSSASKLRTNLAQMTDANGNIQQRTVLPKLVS

Structure (SMILES): C#Cc1cccc(Nc2ncnc3cc(OCCOC)c(OCCOC)cc23)c1
- residual activity (CAMK2B (human)): 93.1%
- residual activity (CDK3 CCNE1 (human)): 95.6%
- residual activity (CHEK1 (human)): 95.1%
- residual activity (CLK4 (human)): 101%
- residual activity (CSNK1A1 (human)): 98.6%
- residual activity (CSNK1G3 (human)): 106%
- residual activity (DSTYK (human)): 107%
- residual activity (EPHA6 (human)): 40.4%
- residual activity (EPHA8 (human)): 89.7%
- residual activity (INSRR (human)): 111%
- residual activity (ITK (human)): 106%
- residual activity [1]: 91.2%
- residual activity (MAPK3 (human)): 101%
- residual activity (MARK4 (human)): 102%
- residual activity (MYO3B (human)): 84.4%
- residual activity (NUAK2 (human)): 95.3%
- residual activity (PASK (human)): 97.4%
- residual activity (PKN1 (human)): 108%
- residual activity (PRKACG (human)): 108%
- residual activity (PRKCG (human)): 84.1%
- residual activity (PRKCZ (human)): 92.3%
- residual activity (PRKG1 (human)): 85.6% and 93.5%
- residual activity (ROS1 (human)): 99.6%
- residual activity (RPS6KA1 KD1 KD2 (human)): 97.6%
- residual activity (RPS6KA2 KD1 KD2 (human)): 101%
- residual activity (SRC (human)): 77.4%
- residual activity (STK25 (human)): 99.4%
- residual activity (STK38 (human)): 101%
- residual activity (TAOK1 (human)): 98.3%
- residual activity (TLK2 (human)): 85.9%
- residual activity (ULK3 (human)): 105%

Structure (SMILES): CC(C)n1cnc2c(Nc3cccc(Cl)c3)nc(NCCO)nc21
- residual activity (ABL1 (human)): 73.3%
- residual activity [2]: 107%
- residual activity (BRAF (human)): 97%
- residual activity (CAMK2B (human)): 95.9%
- residual activity (CDK3 CCNE1 (human)): 76.9%
- residual activity (CHEK1 (human)): 87.1%
- residual activity (CLK4 (human)): 36.1%
- residual activity (CSNK1A1 (human)): 62.3%
- residual activity (CSNK1G3 (human)): 6.89%
- residual activity (CSNK2A2 (human)): 91.8%
- residual activity (DSTYK (human)): 97%
- residual activity (DYRK2 (human)): 93.9%
- residual activity (EGFR (human)): 91.5%
- residual activity (EPHA8 (human)): 98.2%
- residual activity (INSRR (human)): 82.5%
- residual activity (ITK (human)): 96%
- residual activity [1]: 103%
- residual activity (MAPK3 (human)): 111%
- residual activity (MAPK8 (human)): 94.8%
- residual activity (MARK4 (human)): 88.1%
- residual activity (NUAK2 (human)): 89.8%
- residual activity (PASK (human)): 92.7%
- residual activity (PDGFRB (human)): 94.7%
- residual activity (PKN1 (human)): 101%
- residual activity (PRKCE (human)): 93.6%
- residual activity (PRKCG (human)): 93.6%
- residual activity (PRKCZ (human)): 97.8%
- residual activity (PRKG1 (human)): 92.2% and 98.1%
- residual activity (ROS1 (human)): 102%
- residual activity (RPS6KA1 KD1 KD2 (human)): 69.1%
- residual activity (RPS6KA2 KD1 KD2 (human)): 62.1%
- residual activity (SRC (human)): 68.9%
- residual activity (STK25 (human)): 92.9%
- residual activity (TAOK1 (human)): 94.4%
- residual activity (TYRO3 (human)): 92.7%

Structure (SMILES): CCN1/C(=C/C(C)=O)Sc2ccc(OC)cc21
- residual activity (ABL1 (human)): 92.9%
- residual activity [2]: 128%
- residual activity (BRAF (human)): 95.3%
- residual activity (CAMK2B (human)): 102%
- residual activity (CDK3 CCNE1 (human)): 91.5%
- residual activity (CHEK1 (human)): 87.9%
- residual activity (CLK4 (human)): 18.5%
- residual activity (CSNK1A1 (human)): 53%
- residual activity (CSNK2A2 (human)): 89.7%
- residual activity (DSTYK (human)): 90.6%
- residual activity (DYRK2 (human)): 19.5%
- residual activity (EGFR (human)): 99.1%
- residual activity (EPHA8 (human)): 98.5%
- residual activity (INSRR (human)): 91.6%
- residual activity (ITK (human)): 102%
- residual activity [1]: 98.9%
- residual activity (MAPK3 (human)): 105%
- residual activity (MAPK8 (human)): 102%
- residual activity (MARK4 (human)): 102%
- residual activity (NUAK2 (human)): 107%
- residual activity (PASK (human)): 72.8%
- residual activity (PDGFRB (human)): 107%
- residual activity (PKN1 (human)): 100%
- residual activity (PRKCE (human)): 95.2%
- residual activity (PRKCG (human)): 75.4%
- residual activity (PRKCZ (human)): 98%
- residual activity (PRKG1 (human)): 82.4% and 87%
- residual activity (ROS1 (human)): 113%
- residual activity (RPS6KA1 KD1 KD2 (human)): 94%
- residual activity (RPS6KA2 KD1 KD2 (human)): 83.3%
- residual activity (SRC (human)): 94.4%
- residual activity (STK25 (human)): 98%
- residual activity (TAOK1 (human)): 92.4%

Structure (SMILES): Nc1n[nH]c2nnc(-c3c(-c4ccccc4)nn4ccccc34)cc12
- residual activity (ABL1 (human)): 83.3%
- residual activity [2]: 98.4%
- residual activity (BRAF (human)): 95.7%
- residual activity (CAMK2B (human)): 102%
- residual activity (CDK3 CCNE1 (human)): 96.8%
- residual activity (CHEK1 (human)): 103%
- residual activity (CLK4 (human)): 101%
- residual activity (CSNK1A1 (human)): 100%
- residual activity (CSNK1G3 (human)): 104%
- residual activity (CSNK2A2 (human)): 93.4%
- residual activity (DSTYK (human)): 95.9%
- residual activity (DYRK2 (human)): 103%
- residual activity (EGFR (human)): 83.9%
- residual activity (EPHA8 (human)): 100%
- residual activity (INSRR (human)): 95.7%
- residual activity (ITK (human)): 90.8%
- residual activity [1]: 104%
- residual activity (MAPK3 (human)): 65.8%
- residual activity (MAPK8 (human)): 98%
- residual activity (MARK4 (human)): 105%
- residual activity (NUAK2 (human)): 87.3%
- residual activity (PASK (human)): 99.8%
- residual activity (PDGFRB (human)): 114%
- residual activity (PKN1 (human)): 98.2%
- residual activity (PRKCE (human)): 72.7%
- residual activity (PRKCG (human)): 103%
- residual activity (PRKCZ (human)): 83.9%
- residual activity (PRKG1 (human)): 89.5% and 93.6%
- residual activity (ROS1 (human)): 80.2%
- residual activity (RPS6KA1 KD1 KD2 (human)): 95.1%
- residual activity (RPS6KA2 KD1 KD2 (human)): 96.5%
- residual activity (SRC (human)): 100%
- residual activity (STK25 (human)): 84.2%
- residual activity (TAOK1 (human)): 95.8%
- residual activity (TYRO3 (human)): 97.6%
